From ChEMBL document CHEMBL3832045, “DailyMed|setid=14ed9edd-bfd3-4fa4-9293-66666f779ba3 | TRIAMCINOLONE ACETONIDE - triamcinolone acetonide spray, metered|Physicians Total Care, Inc”

Legend:
Type in all cases: ADME, organism-based
[1] = Evaluation of pharmacokinetic parameters for triamcinolone acetonide following intravenous dosing of triamcinolone acetonide phosphate ester in adults.; details: human, in vivo, dosed compound id 470, dosed compound name TRIAMCINOLONE ACETONIDE PHOSPHATE ESTER, tissue Plasma
[2] = (§1) Pharmacokinetic parameters for triamcinolone acetonide evaluated after intranasal administration of triamcinolone acetonide nasal spray.; design: dose 220 mcg, route intranasal, dose 110 to 440; details: human, in vivo, inhaled or intranasal, dosed compound id 47, dosed compound name TRIAMCINOLONE ACETONIDE, regimen Single dose, tissue Plasma
[3] = tested on: Homo sapiens; experiment: as §1; design: dose 220 mcg, route intranasal, dose 110 to 440; details: in vivo, inhaled_or_intranasal, dose 220 mcg, dosed compound id 47, dosed compound name TRIAMCINOLONE ACETONIDE, regimen Single dose, route intranasal, tissue Plasma

Vd [1]: 99.5 L | clearance [1]: 753 mL/min | half-life [1]: 1.47 h | Tmax ([2]; dose 220 mcg, route intranasal): 1.5 h | half-life ([2]; dose 220 mcg, route intranasal): 3.1 h | Cmax [2]: 0.5 ng/mL | AUC ([2]; read-out: AUC(0 to inf)): 1.4 to 4.7 ng·h/mL | t1/2 [3]: 3.1 h
SMILES: CC1(C)O[C@@H]2C[C@H]3[C@@H]4CCC5=CC(=O)C=C[C@]5(C)[C@@]4(F)[C@@H](O)C[C@]3(C)[C@]2(C(=O)CO)O1 [TRIAMCINOLONE ACETONIDE]
